In PubChem BioAssay AID256 (DTP/NCI, 2004):
Values joined by “and” are separate entries in the source; they are usually repeats but may differ in a detail not shown here. Equal entries are not always repeated. Toxic doses and inconclusive results are not listed. Rule for the calls: active = survival T/C of 150% or more; inactive = T/C below 125% in these data.

System: CD2F1 mice, L1210 leukemia ip, survival T/C
Test: NCI In Vivo Anticancer Drug Screen. Data for tumor model L1210 Leukemia (intraperitoneal) in CD2F1 (CDF1) mice
Settings: higher = longer survival
In short: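 In this screen, transplantable tumors were grown in mice given either the compound or its vehicle. Results were expressed as the treated measurement relative to the control measurement.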

[1] = endpoint: mean survival time, dose: 100.0 mg/kg/injection, schedule: Q01DX001 (ip), vehicle: saline with Tween-80
[2] = endpoint: mean survival time, dose: 200.0 mg/kg/injection, schedule: Q01DX001 (ip), vehicle: saline with Tween-80
[3] = endpoint: mean survival time, dose: 400.0 mg/kg/injection, schedule: Q01DX001 (ip), vehicle: saline with Tween-80
[4] = endpoint: mean survival time, dose: 100.0 mg/kg/injection, schedule: Q04DX002 (ip), vehicle: saline with Tween-80
[5] = endpoint: mean survival time, dose: 200.0 mg/kg/injection, schedule: Q04DX002 (ip), vehicle: saline with Tween-80
[6] = endpoint: mean survival time, dose: 400.0 mg/kg/injection, schedule: Q04DX002 (ip), vehicle: saline with Tween-80
[7] = endpoint: mean survival time, dose: 100.0 mg/kg/injection, schedule: Q01DX009 (ip), vehicle: saline with Tween-80
[8] = endpoint: mean survival time, dose: 100.0 mg/kg/injection, schedule: Q04DX003 (ip), vehicle: saline with Tween-80
[9] = endpoint: mean survival time, dose: 200.0 mg/kg/injection, schedule: Q01DX009 (ip), vehicle: saline with Tween-80
[10] = endpoint: mean survival time, dose: 200.0 mg/kg/injection, schedule: Q04DX003 (ip), vehicle: saline with Tween-80
[11] = endpoint: mean survival time, dose: 400.0 mg/kg/injection, schedule: Q01DX009 (ip), vehicle: saline with Tween-80
[12] = endpoint: mean survival time, dose: 400.0 mg/kg/injection, schedule: Q04DX003 (ip), vehicle: saline with Tween-80
[13] = endpoint: mean survival time, dose: 50.0 mg/kg/injection, schedule: Q01DX009 (ip), vehicle: saline with Tween-80

Measured: T/C

CN(C)CC(=O)c1ccc(O)c(O)c1
inactive: endpoint: mean survival time, dose: 16.0 mg/kg/injection, schedule: Q03HX008 (ip), vehicle: saline 95 % of control | endpoint: mean survival time, dose: 16.0 mg/kg/injection, schedule: Q03HX016 (ip), vehicle: saline 97 % of control | endpoint: mean survival time, dose: 32.0 mg/kg/injection, schedule: Q03HX008 (ip), vehicle: saline 96 % of control | endpoint: mean survival time, dose: 32.0 mg/kg/injection, schedule: Q03HX016 (ip), vehicle: saline 106 % of control | endpoint: mean survival time, dose: 64.0 mg/kg/injection, schedule: Q01DX009 (sc), vehicle: saline 86 % of control | endpoint: mean survival time, dose: 64.0 mg/kg/injection, schedule: Q03HX008 (ip), vehicle: saline 110 % of control | endpoint: mean survival time, dose: 64.0 mg/kg/injection, schedule: Q03HX016 (ip), vehicle: saline 111 % of control | endpoint: mean survival time, dose: 64.0 mg/kg/injection, schedule: Q04DX003 (ip), vehicle: saline 101 % of control | endpoint: mean survival time, dose: 128.0 mg/kg/injection, schedule: Q01DX001 (oral), vehicle: saline 98 % of control | endpoint: mean survival time, dose: 128.0 mg/kg/injection, schedule: Q01DX001 (sc), vehicle: saline 98 % of control | endpoint: mean survival time, dose: 128.0 mg/kg/injection, schedule: Q01DX009 (oral), vehicle: saline 93 % of control | endpoint: mean survival time, dose: 128.0 mg/kg/injection, schedule: Q01DX009 (sc), vehicle: saline 86 % of control | endpoint: mean survival time, dose: 128.0 mg/kg/injection, schedule: Q03HX008 (ip), vehicle: saline 118 % of control | endpoint: mean survival time, dose: 128.0 mg/kg/injection, schedule: Q03HX016 (ip), vehicle: saline 122 % of control | endpoint: mean survival time, dose: 128.0 mg/kg/injection, schedule: Q04DX003 (ip), vehicle: saline 107 % of control | endpoint: mean survival time, dose: 128.0 mg/kg/injection, schedule: Q08DX002 (ip), vehicle: saline 105 % of control | endpoint: mean survival time, dose: 256.0 mg/kg/injection, schedule: Q01DX001 (oral), vehicle: saline 101 % of control | endpoint: mean survival time, dose: 256.0 mg/kg/injection, schedule: Q01DX001 (sc), vehicle: saline 96 % of control | endpoint: mean survival time, dose: 256.0 mg/kg/injection, schedule: Q01DX009 (oral), vehicle: saline 92 % of control | endpoint: mean survival time, dose: 256.0 mg/kg/injection, schedule: Q01DX009 (sc), vehicle: saline 86 % of control | endpoint: mean survival time, dose: 256.0 mg/kg/injection, schedule: Q04DX003 (ip), vehicle: saline 107 % of control | endpoint: mean survival time, dose: 256.0 mg/kg/injection, schedule: Q08DX002 (ip), vehicle: saline 103 % of control | endpoint: mean survival time, dose: 512.0 mg/kg/injection, schedule: Q01DX001 (oral), vehicle: saline 98 % of control | endpoint: mean survival time, dose: 512.0 mg/kg/injection, schedule: Q01DX001 (sc), vehicle: saline 95 % of control | endpoint: mean survival time, dose: 512.0 mg/kg/injection, schedule: Q01DX009 (oral), vehicle: saline 91 % of control | endpoint: mean survival time, dose: 512.0 mg/kg/injection, schedule: Q01DX009 (sc), vehicle: saline 86 % of control | endpoint: mean survival time, dose: 512.0 mg/kg/injection, schedule: Q04DX003 (ip), vehicle: saline 107 % of control | endpoint: mean survival time, dose: 512.0 mg/kg/injection, schedule: Q08DX002 (ip), vehicle: saline 105 % of control | endpoint: mean survival time, dose: 1024.0 mg/kg/injection, schedule: Q01DX001 (oral), vehicle: saline 96 % of control | endpoint: mean survival time, dose: 1024.0 mg/kg/injection, schedule: Q01DX001 (sc), vehicle: saline 107 % of control | endpoint: mean survival time, dose: 1024.0 mg/kg/injection, schedule: Q01DX009 (oral), vehicle: saline 93 % of control | endpoint: mean survival time, dose: 1024.0 mg/kg/injection, schedule: Q08DX002 (ip), vehicle: saline 110 % of control

CCCCCCCCCCCCCCCCCCC(C)C1CCCCC1 (stereo not drawn)
inactive: [1] 104 % of control | [2] 107 % of control | [3] 101 % of control

C1=CCC2C3C=CC(CC3)C2C1 (stereo not drawn)
inactive: endpoint: mean survival time, dose: 75.0 mg/kg/injection, schedule: Q01DX001 (ip), vehicle: saline 86 % of control | endpoint: mean survival time, dose: 150.0 mg/kg/injection, schedule: Q01DX001 (ip), vehicle: saline 95 % of control | endpoint: mean survival time, dose: 300.0 mg/kg/injection, schedule: Q01DX001 (ip), vehicle: saline 97 % of control

C=CCCCCCCCCC(=O)NCC[N+](C)(C)C
inactive: endpoint: mean survival time, dose: 6.25 mg/kg/injection, schedule: Q01DX009 (ip), vehicle: saline 104 % of control | endpoint: mean survival time, dose: 6.25 mg/kg/injection, schedule: Q04DX003 (ip), vehicle: saline 96 % of control | endpoint: mean survival time, dose: 12.5 mg/kg/injection, schedule: Q01DX009 (ip), vehicle: saline 101 % of control | endpoint: mean survival time, dose: 12.5 mg/kg/injection, schedule: Q04DX003 (ip), vehicle: saline 97 % of control | endpoint: mean survival time, dose: 25.0 mg/kg/injection, schedule: Q01DX009 (ip), vehicle: saline 106 % of control | endpoint: mean survival time, dose: 25.0 mg/kg/injection, schedule: Q04DX003 (ip), vehicle: saline 102 % of control

Oc1ccc(/C=N/NC(=S)Nc2ccccc2)nc1
inactive: [4] 106 % of control | [5] 106 % of control | [6] 95 % of control

CCCCCCCCCCCCCCN1CCCN(CCCCCCCCCCCCCC)CC1
inactive: endpoint: mean survival time, dose: 50.0 mg/kg/injection, schedule: Q04DX003 (ip), vehicle: saline with Tween-80 93 % of control | [1] 94 % of control | [7] 96 % of control and 101 % of control | [4] 96 % of control | [8] 93 % of control and 101 % of control | [2] 94 % of control | [9] 98 % of control and 104 % of control | [5] 93 % of control and 97 % of control | [10] 98 % of control and 100 % of control | [3] 101 % of control | [11] 93 % of control and 95 % of control | [6] 93 % of control and 96 % of control | [12] 98 % of control

O/N=C\c1cc[n+](CC[n+]2ccc(/C=N/O)cc2)cc1
inactive: endpoint: mean survival time, dose: 25.0 mg/kg/injection, schedule: Q04DX002 (ip), vehicle: other 97 % of control | endpoint: mean survival time, dose: 50.0 mg/kg/injection, schedule: Q04DX002 (ip), vehicle: other 94 % of control | endpoint: mean survival time, dose: 100.0 mg/kg/injection, schedule: Q04DX002 (ip), vehicle: other 108 % of control

COc1cc(/C=C(\C#N)c2ccc(Cl)cc2)ccc1OCc1ccccc1
inactive: [13] 95 % of control | [7] 90 % of control | [8] 89 % of control | [9] 90 % of control | [10] 89 % of control | [12] 89 % of control

Cc1ccc(NC(=O)Nc2cccc(-n3cnc4c(=O)[nH]c(N)nc43)c2)cc1S(=O)(=O)F
inactive: [1] 86 % of control | [2] 88 % of control | [3] 89 % of control

O=C(Nc1ccccc1)Nc1ccccc1F
inactive: [7] 95 % of control | [9] 113 % of control | [11] 98 % of control

ClC/C(=N\N1CCCCCC1)c1ccccc1
inactive: endpoint: mean survival time, dose: 100.0 mg/kg/injection, schedule: Q01DX001 (ip), vehicle: saline 103 % of control | endpoint: mean survival time, dose: 200.0 mg/kg/injection, schedule: Q01DX001 (ip), vehicle: saline 103 % of control | endpoint: mean survival time, dose: 400.0 mg/kg/injection, schedule: Q01DX001 (ip), vehicle: saline 102 % of control

CN1C2CCC1CC(OC(=O)c1ccccc1)C2 (stereo not drawn)
inactive: endpoint: mean survival time, dose: 100.0 mg/kg/injection, schedule: Q04DX002 (ip), vehicle: Klucel (hydroxypropylcellulose) (HPC) 121 % of control | endpoint: mean survival time, dose: 200.0 mg/kg/injection, schedule: Q04DX002 (ip), vehicle: Klucel (hydroxypropylcellulose) (HPC) 90 % of control | endpoint: mean survival time, dose: 400.0 mg/kg/injection, schedule: Q04DX002 (ip), vehicle: Klucel (hydroxypropylcellulose) (HPC) 100 % of control

CC1=NC(c2ccccn2)=NNC(c2ccccn2)=C1c1ccccc1
inactive: endpoint: mean survival time, dose: 12.5 mg/kg/injection, schedule: Q01DX009 (ip), vehicle: water 98 % of control | endpoint: mean survival time, dose: 25.0 mg/kg/injection, schedule: Q01DX009 (ip), vehicle: water 96 % of control | endpoint: mean survival time, dose: 50.0 mg/kg/injection, schedule: Q01DX009 (ip), vehicle: water 98 % of control | endpoint: mean survival time, dose: 100.0 mg/kg/injection, schedule: Q01DX009 (ip), vehicle: water 86 % of control | endpoint: mean survival time, dose: 200.0 mg/kg/injection, schedule: Q01DX009 (ip), vehicle: water 90 % of control

Cc1ccc(C)c(C(=O)c2ccccc2C(N)=O)c1
inactive: [13] 94 % of control | [7] 92 % of control | [9] 88 % of control

CSc1nc(NC2OC(CO)C(O)C(O)C2O)c(Br)c(=O)n1C (stereo not drawn)
inactive: endpoint: median survival time, dose: 12.5 mg/kg/injection, schedule: Q01DX005 (ip), vehicle: saline with Tween-80 98 % of control | endpoint: median survival time, dose: 25.0 mg/kg/injection, schedule: Q01DX005 (ip), vehicle: saline with Tween-80 100 % of control | endpoint: median survival time, dose: 50.0 mg/kg/injection, schedule: Q01DX005 (ip), vehicle: saline with Tween-80 96 % of control | endpoint: median survival time, dose: 100.0 mg/kg/injection, schedule: Q01DX005 (ip), vehicle: saline with Tween-80 101 % of control
